Reference: US7659299B2, “Compounds inhibiting the binding of sap for treating osteoarthritis” (Pentraxin Therapeutics Limited, priority 2003, dated 2010)

Experiments:
Design in all cases: 5 μl of radiolabelled SAP in TN; from tissue
[1] = molecular target: T1, SAP (Homo sapiens, UniProt P02743); experiment: Inhibition of binding of 125I radiolabelled SAP to influenza virus immobilized in microtitre plates; settings: for inhibition at 0.2 µM / inhibition at 2 µM / inhibition at 20 µM / inhibition at 200 µM / inhibition at 2000 µM: read-out: Percent inhibition of binding of radiolabelled SAP to immobilized influenza virus
Method: A concentrated suspension of purified influenza virus A/Shanghai/24/90 at 10 mg protein per ml in PBS was diluted 1:50 in PBS and then dispensed to polystyrene microtitre plates at 50 μl volumes per well, and left overnight at 4° C. All wells were then emptied before blocking by addition to each well of 200 μl of 2% w/v BSA in PBS and incubation at room temperature for 1 h. All wells were then washed three times with 200 μl volumes of PBS containing 0.05% v/v Tween 20, prior to equilibration for 2 min with 0.01M Tris buffered 0.14M NaCl/0.002M CaCl2 at pH 8.0 (TC buffer), containing 4% w/v BSA and 0.05% v/v Tween 20 (TCBT buffer). The wells were then emptied before adding to each one the following reagents. […] For background, non-specific, non calcium dependent, binding in the presence of EDTA: 5 μl radiolabelled SAP in TN and 45 μl 0.01M Tris buffered 0.14M NaCl at pH 8.0 containing 11.1 mM EDTA, 4.4% w/v BSA and 0.06% w/v Tween 20 (TEBT buffer) to provide final concentrations of EDTA, 10 mM; BSA, 4%; Tween 20, 0.05%. […] All wells were then incubated at room temperature for 2 h before being washed three times with 200 μl volumes of TCBT, allowed to dry for 1 h at room temperature, and bound radiolabelled SAP was then counted. The compounds tested in the experiment shown here were the same as those specified in Example B above.
The capacity of the compounds tested to inhibit binding of SAP to the immobilised influenza virus is expressed as the percentage by which SAP binding was reduced compared to binding in the absence of any inhibitor (Table 3).

[2] = molecular target: T1, SAP; experiment: Inhibition of binding of 125I radiolabelled SAP to native long chromatin immobilized in microtitre plates; settings: for inhibition at 0.2 µM / inhibition at 2 µM / inhibition at 20 µM / inhibition at 200 µM / inhibition at 2000 µM: read-out: Percent inhibition of binding of radiolabelled SAP to immobilized native long chromatin
[3] = molecular target: T1, SAP; experiment: Inhibition of binding of 125I radiolabelled SAP to Neisseria meningitidis immobilized in microtitre plates; settings: for inhibition at 0.2 µM / inhibition at 2 µM / inhibition at 20 µM / inhibition at 200 µM / inhibition at 2000 µM: read-out: Percent inhibition of binding of radiolabelled SAP to immobilized Neisseria meningitidis
Method: A suspension of heat killed Neisseria meningitidis at 1×10^8 organisms per ml in PBS was dispensed to polystyrene microtitre plates at 50 μl volumes per well, and left overnight at 4° C. All wells were then washed three times with 200 μl volumes of PBS containing 0.05% v/v Tween 20, prior to equilibration for 2 min with 0.01M Tris buffered 0.14M NaCl/0.002M CaCl2 at pH 8.0 (TC buffer), containing 4% w/v BSA and 0.05%/v Tween 20 (TCBT buffer). The wells were then emptied before adding to each one the following reagents. […] For background, non-specific, non calcium dependent, binding in the presence of EDTA: 5 μl radiolabelled SAP in TN and 45 μl 0.01M Tris buffered 0.14M NaCl at pH 8.0 containing 11.1 mM EDTA, 4.4% w/v BSA and 0.06% w/v Tween 20 (TEBT buffer) to provide final concentrations of EDTA, 10 mM; BSA, 4%; Tween 20, 0.05%. […] All wells were then incubated at room temperature for 2 h before being washed three times with 200 μl volumes of TCBT, allowed to dry for 1 h at room temperature, and bound radiolabelled SAP was then counted.
The capacity of the compounds tested to inhibit binding of SAP to meningococci is expressed as the percentage by which SAP binding was reduced compared to binding in the absence of any inhibitor (Table 1).

T1 sequence (P02743 20-223): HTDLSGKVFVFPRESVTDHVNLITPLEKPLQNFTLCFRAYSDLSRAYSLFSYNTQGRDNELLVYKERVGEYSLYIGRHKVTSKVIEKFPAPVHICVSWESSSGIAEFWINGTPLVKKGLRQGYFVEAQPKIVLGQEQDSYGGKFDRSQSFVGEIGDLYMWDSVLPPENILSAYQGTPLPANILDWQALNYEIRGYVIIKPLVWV

Row | Compound | inhibition at 0.2 µM ([1]; compound 200 nM) | inhibition at 2 µM ([1]; compound 2 μM) | inhibition at 20 µM ([1]; compound 20 μM) | inhibition at 200 µM ([1]; compound 200 μM) | inhibition at 2000 µM ([1]; compound 2 mM) | inhibition at 0.2 µM ([2]; compound 200 nM) | inhibition at 2 µM ([2]; compound 2 μM) | inhibition at 20 µM ([2]; compound 20 μM) | inhibition at 200 µM ([2]; compound 200 μM) | inhibition at 2000 µM ([2]; compound 2 mM) | inhibition at 0.2 µM ([3]; compound 200 nM) | inhibition at 2 µM ([3]; compound 2 μM) | inhibition at 20 µM ([3]; compound 20 μM) | inhibition at 200 µM ([3]; compound 200 μM) | inhibition at 2000 µM ([3]; compound 2 mM) | also measured
1 | O=C(O)[C@H]1CCCN1C(=O)Cc1ccc(CC(=O)N2CCC[C@@H]2C(=O)O)c2ccccc12 [Ro-64-5607, (R)-1-[[4-[2-[(R)-2-Carboxy-pyrrolidin-1-yl]-2-oxo-ethyl]-naphthalen-1-yl]-acetyl]-pyrrolidine-2-carboxylic acid] | 4% | 64% | 95% | 94% | 98% | 15% | 35% | 77% | 96% | 100% | 13% | 69% | 89% |  |  | 
2 | O=C(O)[C@H]1CCCN1C(=O)Cc1cc(O)c(CC(=O)N2CCC[C@@H]2C(=O)O)cc1O [Ro-64-4383, (R)-1-[[2,5-Dihydroxy-4-[2-[(R)-2-carboxy-pyrrolidin-1-yl]-2-oxo-ethyl]-phenyl]-acetyl]-pyrrolidine-2-carboxylic acid] | 24% | 57% | 80% | 89% | 89% | 0% | 45% | 78% | 88% | 97% | 1% | 76% | 95% | 100% | 100% | 
3 | O=C(O)[C@H]1CCCN1C(=O)COc1ccccc1OCC(=O)N1CCC[C@@H]1C(=O)O [Ro-63-8593, (R)-1-[[2-[2-[(R)-2-Carboxy-pyrrolidin-1-yl]-2-oxo-ethoxy]-phenoxyl]-acetyl]-pyrrolidine-2-carboxylic acid] | 44% | 68% | 88% | 93% | 94% | 7% | 34% | 77% | 89% | 96% | 18% |  | 87% | 100% | 100% | 
4 | O=C(O)[C@H]1CCCN1C(=O)COc1cccc2c(OCC(=O)N3CCC[C@@H]3C(=O)O)cccc12 [Ro-64-5445, (R)-1-[[5-[2-[(R)-2-Carboxy-pyrrolidin-1-yl]-2-oxo-ethoxy]-naphthalen-1-yloxy]-acetyl]-pyrrolidine-2-carboxylic acid] | 23% |  | 64% | 76% | 80% | 12% | 51% | 74% | 82% | 96% | 30% | 72% | 81% | 100% | 100% | 
5 | O=C(O)[C@H]1CCCN1C(=O)Cc1ccc(CC(=O)N2CCC[C@@H]2C(=O)O)cc1 [Ro-63-7777, (R)-1-[[4-[2-[(R)-2-Carboxy-pyrrolidin-1-yl]-2-oxo-ethyl]-phenyl]-acetyl]-pyrrolidine-2-carboxylic acid] | 37% | 65% | 85% | 89% | 89% | 4% | 19% | 39% | 66% | 92% | 7% | 64% | 73% | 100% | 100% | 
6 | COc1cccc(OCC(=O)N2CCC[C@@H]2C(=O)O)c1OCC(=O)N1CCC[C@@H]1C(=O)O [Ro-64-2845, (R)-1-[[2-[2-[(R)-2-carboxy-pyrrolidin-1-yl]-2-oxo-ethoxy]-3-methoxy-phenoxy]-acetyl]-pyrrolidine-2-carboxylic acid] | 16% | 52% | 62% | 77% | 89% | 11% |  | 75% | 96% | 100% | 19% | 74% | 92% | 93% |  | 
7 | Cc1c(OCC(=O)N2CCC[C@@H]2C(=O)O)cccc1OCC(=O)N1CCC[C@@H]1C(=O)O [Ro-64-2848, (R)-1-[[3-[2-[(R)-1-Carboxy-pyrrolidin-1-yl]-2-oxo-ethoxy]-2-methyl-phenoxy]-acetyl]-pyrrolidine-2-carboxylic acid] |  |  |  |  |  |  |  |  |  |  |  |  |  |  |  | Percent inhibition of binding of radiolabelled SAP to immobilized influenza virus ([1]; compound 200 nM): 24%; Percent inhibition of binding of radiolabelled SAP to immobilized influenza virus ([1]; compound 2 μM): 65%; Percent inhibition of binding of radiolabelled SAP to immobilized influenza virus ([1]; compound 20 μM): 81%; Percent inhibition of binding of radiolabelled SAP to immobilized influenza virus ([1]; compound 200 μM): 81%; Percent inhibition of binding of radiolabelled SAP to immobilized influenza virus ([1]; compound 2 mM): 85%; Percent inhibition of binding of radiolabelled SAP to immobilized native long chromatin ([2]; compound 200 nM): 0%; Percent inhibition of binding of radiolabelled SAP to immobilized native long chromatin ([2]; compound 2 μM): 22%; Percent inhibition of binding of radiolabelled SAP to immobilized native long chromatin ([2]; compound 20 μM): 65%; Percent inhibition of binding of radiolabelled SAP to immobilized native long chromatin ([2]; compound 200 μM): 95%; Percent inhibition of binding of radiolabelled SAP to immobilized native long chromatin ([2]; compound 2 mM): 98%; Percent inhibition of binding of radiolabelled SAP to immobilized Neisseria meningitidis ([3]; compound 200 nM): 1%; Percent inhibition of binding of radiolabelled SAP to immobilized Neisseria meningitidis ([3]; compound 2 μM): 64%; Percent inhibition of binding of radiolabelled SAP to immobilized Neisseria meningitidis ([3]; compound 20 μM): 93%; Percent inhibition of binding of radiolabelled SAP to immobilized Neisseria meningitidis ([3]; compound 200 μM): 100%; Percent inhibition of binding of radiolabelled SAP to immobilized Neisseria meningitidis ([3]; compound 2 mM): 100%
8 | O=C(O)CN(CCN(CC(=O)O)CC(=O)O)CC(=O)O [EDTA, reference compound] |  |  |  |  |  |  |  |  |  |  |  |  |  |  |  | Inhibition of binding of SAP to immobilised influenza virus, in words ([1]; summary of Table 3): All binding was inhibited; Inhibition of binding of SAP to chromatin, in words ([2]; Table 2): All binding was inhibited; Percent inhibition of binding of radiolabelled SAP to immobilized Neisseria meningitidis ([3]; EDTA 10 mM (printed in the 2 mM column)): 100%; Inhibition of binding of SAP to meningococci, in words ([3]; summary of Table 1): All binding was inhibited
9 | O=C(O)[C@H]1CCCN1C(=O)Cc1cccc(CC(=O)N2CCC[C@@H]2C(=O)O)c1 [Ro-64-2668, (R)-1-[[3-[2-[(R)-2-Carboxy-pyrrolidin-1-yl]-2-oxo-ethyl]-phenyl]-acetyl]-pyrrolidine-2-carboxylic acid] | 25% | 68% | 73% | 77% | 82% | 0% | 18% | 56% | 94% | 98% | 28% | 64% | 92% | 100% | 100% | 
